Measurements as given in patent publication US9809562B2, “NAT10 modulators for treating or preventing laminopathies, aging and cancer” (CAMBRIDGE ENTERPRISE LIMITED, priority 2014, dated 2017).
Where a name gives a salt, the structure may show the parent alone.

Legend:
Assay type in all cases: cell-based, human
[1] = system: siLMNA cells; experiment: Golgi apparatus integrity (anti-Giantin) in siLMNA cells
Description: FIG. 13: Inhibiting NAT10 acetyltransferase activity modifies microtubule organisation to rescue nuclear shape defects. A) Microtubule network visualisation by inverted IF pictures of α-Tubulin. B) Nuclear shape visualisation after treating cells with microtubule or actin cytoskeleton disrupting agents. C) Visualisation of nuclear shape (DAPI) and Golgi (anti-Giantin) integrity in siLMNA cells. D) Fractionation of polymerised (P) and soluble (S) tubulin upon Remodelin or nocodazole (Nocod.) treatment. […] Right: quantification of cells with the indicated patterns (means of three independent experiments with n>103±s.e.m.). F) Laminopathic cells have enlarged, misshapen nuclei associated with disorganized chromatin structure. Upon Remodelin treatment, NAT10 acetyltransferase activity is inhibited, leading to disruption of microtubule anchorage at the centrosome and release of microtubule forces on the nuclear envelope. This release of mechanical stress on the nucleus contributes to nuclear shape rescue and global improvement of cellular fitness and chromatin organization. Scale bars: 20 μm.
Cells were washed with PBS and fixed for 20 minutes with 2% PFA in PBS. Cells were permeabilised for 5 minutes with PBS/0.2% Triton X-100, and blocked with PBS/0.2% Tween 20 (PBS-T) containing 5% BSA. […]

[2] = system: HGPS cells; experiment: EdU incorporation by flow cytometry in HGPS cells; settings: 2 hours EdU
Protocol: 10 μM EdU was incubated for 2 hours when indicated. Cells were fixed in 4% paraformaldehyde (Sigma-Aldrich). EdU was fluorescently labeled using the Click-iT® EdU Flow Cytometry Assay Kit (Life Sciences). DNA was stained with […] propidium iodide (Sigma-Aldrich) in phosphate buffer solution (PBS) containing 0.1% Triton-X-100 and 0.5 mg ml^−1 DNase free RNase A (Sigma-Aldrich). Samples were processed on a FACSCalibur flow cytometer equipped with CellQuest software (Becton Dickinson). Results were analysed using FlowJo software (TreeStar).

[3] = system: non-laminopathic Werner syndrome cells; experiment: Misshapen nuclei in Werner syndrome cells
Description: FIG. 10: Remodelin rescues nuclear shape of aged MRC5 cells but not WS cells in a dose dependent manner. A) Misshapen nuclei observed by DAPI staining in MRC5 aged cells in culture, at population doubling 44 (PD44) were rescued by Remodelin. B) Quantification of misshapen nuclei after increasing concentrations of Remodelin (mean of three independent experiments±s.e.m.). C) DAPI staining of non-laminopathic Werner Syndrome cells (WS) showing no nuclear shape improvement upon Remodelin treatment. D) Cell Profiler quantification of misshapen nuclei (mean of three independent experiments±s.d. n>273). Scale bars: 50 μm.
U2OS and SaOS-2 osteosarcoma cells, HeLa cervical cancer cells, A431 melanoma cells, NCI-SNU5 gastric cancer cells, MRC-5 lung fibroblast cells and Werner syndrome patient-derived SV40 fibroblast cells were grown in Dulbecco's modified Eagle medium (DMEM, Sigma-Aldrich) supplemented with 10% fetal bovine serum (BioSera), 2 mM L-glutamine, 100 U per ml penicillin, 100 μg ml^−1 streptomycin. Normal skin primary fibroblasts GM03440 and Hutchinson Gilford Progeria Syndrome (HGPS) skin primary fibroblasts AG11498 and AG06297 were purchased from Coriell Cell Repositories and used between passage number 9-12 and 20-23 respectively. Cells were grown in DMEM supplemented as above. […] Cells were analysed 48 to 72 hours after transfection.

[4] = system: siLMNA cells; experiment: Micrococcal nuclease digestion sensitivity assay and nuclear area (chromatin compaction)
Protocol: CellProfiler software was used to quantify nuclear circularity and nuclear area from DAPI staining pictures, using the “object size shape” measurement. The AreaShape measurement allowed the calculation of the Form Factor index ([…]) corresponding to circularity (a Form Factor of 1 reflecting a perfect circle), as well as the calculation of nuclear Area.
1×10^6 cells were trypsinized, harvested, and washed once with 1 ml of 1×RSB buffer (10 mM Tris, pH 7.6, 15 mM NaCl, and 1.5 mM MgCl2). After centrifugation ([…]), the cell pellet was resuspended in 1 ml of 1×RSB buffer with 1% Triton-X 100 and homogenized by five strokes with a loose-fitting glass pestle to release nuclei. Nuclei were collected by centrifugation (13,000×g) and washed twice with 1 ml of buffer A (15 mM Tris, pH 7.5, 15 mM NaCl, 60 mM KCl, 0.34 M sucrose, 0.5 mM spermidine, 0.15 mM spermine, 0.25 mM PMSF, and 0.1% β-mercaptoethanol). Nuclei were resuspended in Buffer A and aliquoted into 100 μl aliquots. […] DNA was purified using the Qiagen PCR purification kit and 1500 ng of DNA was analysed on a 1.5% agarose gel. Digestion profiles were analysed using ImageJ and values were adjusted relative to the global intensity of each lane to compensate for DNA loading variations.

Row | SMILES | Golgi apparatus integrity [1] | DNA replication (EdU incorporation) [2] | misshapen nuclei of Werner syndrome cells [3] | global chromatin compaction (MNase sensitivity) [4] | nuclear area [4]
1 | N#Cc1ccc(-c2csc(NN=C3CCCC3)n2)cc1 [Compound 1, 4-(4-Cyanophenyl)-2-(2-cyclopentylidenehydrazinyl)thiazole] | did not affect Golgi apparatus integrity | improved DNA replication | no detectable effect on misshapen nuclei | – | –
2 | Clc1ccc(-c2csc(NN=C3CCCC3)n2)cc1 [Compound 2, 4-(4-Chlorophenyl)-2-(2-cyclopentylidenehydrazinyl)thiazole Hydrochloride Salt] | – | – | – | decreased MNase sensitivity | reduced nuclear area
